Patent publication US12570659B2, “Bicyclic heteroaryl compounds useful as IRAK4 inhibitors” (BRISTOL-MYERS SQUIBB COMPANY, priority 2019, dated 2026)

Assays:
[1] = target: JAK3 kinase (Homo sapiens (Human), UniProt P52333); experiment: JAK3 Homogeneous Time Resolved Fluorescence (HTRF) Assay; format: binding; conditions: for IC50: competition binding with fluorescein-labeled ATP competitive probe; for Ratio of JAK3 IC50 to IRAK4 IC50: selectivity for IRAK4 over JAK3
Experimental: JAK3 Homogeneous Time Resolved Fluorescence (HTRF) Assay
A time resolved FRET-based competition binding assay was used to assess test article binding to JAK3 kinase. His-tagged or GST-tagged kinase at a concentration of 1 nM was incubated with 0.2 nM Tb-labeled detection antibody (anti-His or anti-GST), test compound, and fluorescein-labeled ATP competitive probe at a concentration corresponding to the probe's equilibrium dissociation constant for one hour. Fluorescence at 495 nm and 520 nm was measured using an EnVision microplate reader to quantify FRET between Tb-labeled detection antibody and fluorescein-labeled probe. Background subtracted FRET ratios were normalized to the maximum signal obtained in the absence of test compound. These values were converted to a percent inhibition. Percent inhibition was determined for test compounds at 11 concentrations. The IC50, defined as the concentration of the competing test compound needed to reduce specific binding of the probe by 50%, was calculated using the 4 parameter logistic equation to fit the data.

[2] = target: IRAK4 (Homo sapiens (Human), UniProt Q9NWZ3); experiment: IRAK4 Inhibition Assay; format: biochemical; conditions: ATP 500 μM; IRAK4 0.6 nM; 60 min room temperature
Experimental: IRAK4 Inhibition Assay The assays were performed in U-bottom 384-well plates. […] The reaction was initiated by the combination of IRAK4 with substrates and test compounds. The reaction mixture was incubated at room temperature for 60 min. and terminated by adding 45 μL of 35 mM EDTA to each sample. The reaction mixture was analyzed on the Caliper LABCHIP® 3000 (Caliper, Hopkinton, MA) by electrophoretic separation of the fluorescent substrate and phosphorylated product. Inhibition data were calculated by comparison to no enzyme control reactions for 100% inhibition and vehicle-only reactions for 0% inhibition.

IRAK4, sequence (Q9NWZ3 whole entry, species assumed): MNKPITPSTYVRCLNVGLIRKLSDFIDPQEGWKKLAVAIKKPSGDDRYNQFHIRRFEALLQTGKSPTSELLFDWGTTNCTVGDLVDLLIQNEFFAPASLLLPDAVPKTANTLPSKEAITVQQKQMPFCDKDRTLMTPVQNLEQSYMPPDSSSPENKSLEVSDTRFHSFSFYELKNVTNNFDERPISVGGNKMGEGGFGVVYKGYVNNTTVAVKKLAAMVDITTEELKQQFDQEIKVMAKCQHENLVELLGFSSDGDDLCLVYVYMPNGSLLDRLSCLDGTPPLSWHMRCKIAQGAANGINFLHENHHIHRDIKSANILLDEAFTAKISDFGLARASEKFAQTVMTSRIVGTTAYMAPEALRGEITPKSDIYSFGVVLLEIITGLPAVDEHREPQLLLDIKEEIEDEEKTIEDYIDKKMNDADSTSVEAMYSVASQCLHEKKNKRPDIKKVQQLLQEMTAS
JAK3 kinase, sequence (P52333 whole entry): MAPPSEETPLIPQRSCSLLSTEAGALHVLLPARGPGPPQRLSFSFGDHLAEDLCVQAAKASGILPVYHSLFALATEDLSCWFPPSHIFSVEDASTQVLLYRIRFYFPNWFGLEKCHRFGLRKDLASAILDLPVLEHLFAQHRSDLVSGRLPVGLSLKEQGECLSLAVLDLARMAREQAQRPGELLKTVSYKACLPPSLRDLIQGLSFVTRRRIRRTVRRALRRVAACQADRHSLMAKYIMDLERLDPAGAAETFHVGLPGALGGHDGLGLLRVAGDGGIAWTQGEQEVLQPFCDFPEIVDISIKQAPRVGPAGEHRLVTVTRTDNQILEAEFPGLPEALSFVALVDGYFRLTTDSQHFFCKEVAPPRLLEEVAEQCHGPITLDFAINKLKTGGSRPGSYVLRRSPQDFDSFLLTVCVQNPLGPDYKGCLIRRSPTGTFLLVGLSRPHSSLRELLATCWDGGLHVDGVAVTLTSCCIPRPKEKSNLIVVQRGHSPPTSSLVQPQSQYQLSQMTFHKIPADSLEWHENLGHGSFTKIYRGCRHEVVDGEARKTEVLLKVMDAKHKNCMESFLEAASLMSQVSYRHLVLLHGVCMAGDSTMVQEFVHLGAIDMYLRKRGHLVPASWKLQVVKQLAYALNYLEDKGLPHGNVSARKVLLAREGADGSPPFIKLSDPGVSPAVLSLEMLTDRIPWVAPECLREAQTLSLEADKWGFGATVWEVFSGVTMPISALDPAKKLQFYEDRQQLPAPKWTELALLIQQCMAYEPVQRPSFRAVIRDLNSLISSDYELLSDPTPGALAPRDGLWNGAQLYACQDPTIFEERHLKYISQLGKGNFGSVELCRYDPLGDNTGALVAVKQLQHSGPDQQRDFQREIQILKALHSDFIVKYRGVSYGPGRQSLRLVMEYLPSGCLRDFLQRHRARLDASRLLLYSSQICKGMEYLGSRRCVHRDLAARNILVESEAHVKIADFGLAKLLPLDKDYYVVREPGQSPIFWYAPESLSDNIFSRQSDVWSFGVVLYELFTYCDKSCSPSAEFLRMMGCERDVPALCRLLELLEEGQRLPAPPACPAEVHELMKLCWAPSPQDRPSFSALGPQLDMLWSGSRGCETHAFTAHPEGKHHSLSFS

CC(C)(O)CCNc1c(C(=O)NC[C@@H](F)C(C)(C)O)cnn2cc(-c3ccc(F)nc3)cc12 [Example 21, (R)—N-(2-fluoro-3-hydroxy-3-methylbutyl)-6-(6-fluoropyridin-3-yl)-4-((3-hydroxy-3-methylbutyl)amino)pyrrolo[1,2-b] pyridazine-3-carboxamide]
IC50 [1]: > 50000 nM | Ratio of JAK3 IC50 to IRAK4 IC50 [1]: >294 | IC50 [2]: 170 nM

CC(C)(O)CCNc1c(C(=O)NC[C@@H](F)C(C)(C)O)cnn2cc(-c3cccnc3F)cc12 [Example 22, (R)—N-(2-fluoro-3-hydroxy-3-methylbutyl)-6-(2-fluoropyridin-3-yl)-4-((3-hydroxy-3-methylbutyl)amino)pyrrolo[1,2-b]pyridazine-3-carboxamide]
IC50 [1]: > 50000 nM | Ratio of JAK3 IC50 to IRAK4 IC50 [1]: >278 | IC50 [2]: 180 nM

Cc1cc(-c2cc3c(NCCC(C)(C)O)c(C(=O)NC[C@@H](F)C(C)(C)O)cnn3c2)ccn1 [Example 23, (R)—N-(2-fluoro-3-hydroxy-3-methylbutyl)-4-((3-hydroxy-3-methylbutyl)amino)-6-(2-methylpyridin-4-yl)pyrrolo[1,2-b]pyridazine-3-carboxamide]
IC50 [1]: > 50000 nM | Ratio of JAK3 IC50 to IRAK4 IC50 [1]: >455 | IC50 [2]: 110 nM

Cc1cc(F)ncc1-c1cc2c(NCCC(C)(C)O)c(C(=O)NC[C@@H](F)C(C)(C)O)cnn2c1 [Example 24, (R)—N-(2-fluoro-3-hydroxy-3-methylbutyl)-6-(6-fluoro-4-methylpyridin-3-yl)-4-((3-hydroxy-3-methylbutyl)amino)pyrrolo[1,2-b]pyridazine-3-carboxamide]
IC50 [1]: > 10000 nM | Ratio of JAK3 IC50 to IRAK4 IC50 [1]: >71 | IC50 [2]: 140 nM

CC(C)(O)CCNc1c(C(=O)NC[C@@H](F)C(C)(C)O)cnn2cc(-c3cccnc3)cc12 [Example 25, (R)—N-(2-fluoro-3-hydroxy-3-methylbutyl)-4-((3-hydroxy-3-methylbutyl)amino)-6-(pyridin-3-yl) pyrrolo[1,2-b]pyridazine-3-carboxamide]
IC50 [1]: > 50000 nM | Ratio of JAK3 IC50 to IRAK4 IC50 [1]: >179 | IC50 [2]: 280 nM

CC(C)(O)CCNc1c(C(=O)NC[C@@H](F)C(C)(C)O)cnn2cc(-c3cccc(F)c3)cc12 [Example 26, (R)—N-(2-fluoro-3-hydroxy-3-methylbutyl)-6-(3-fluorophenyl)-4-((3-hydroxy-3-methylbutyl)amino)pyrrolo[1,2-b] pyridazine-3-carboxamide]
IC50 [1]: > 50000 nM | Ratio of JAK3 IC50 to IRAK4 IC50 [1]: >135 | IC50 [2]: 370 nM

CC(C)(O)CCNc1c(C(=O)NC[C@@H](F)C(C)(C)O)cnn2cc(-c3ccc(C#N)nc3)cc12 [Example 27, (R)-6-(6-cyanopyridin-3-yl)-N-(2-fluoro-3-hydroxy-3-methylbutyl)-4-((3-hydroxy-3-methylbutyl)amino)pyrrolo[1,2-b]pyridazine-3-carboxamide]
IC50 [1]: > 50000 nM | Ratio of JAK3 IC50 to IRAK4 IC50 [1]: >208 | IC50 [2]: 240 nM

CC(C)(O)CCNc1c(C(=O)NC[C@@H](F)C(C)(C)O)cnn2cc(-c3ccncc3)cc12 [Example 28, (R)—N-(2-fluoro-3-hydroxy-3-methylbutyl)-4-((3-hydroxy-3-methylbutyl)amino)-6-(pyridin-4-yl)pyrrolo[1,2-b]pyridazine-3-carboxamide]
IC50 [1]: > 50000 nM | Ratio of JAK3 IC50 to IRAK4 IC50 [1]: >1241 | IC50 [2]: 40.3 nM

CC(C)(O)[C@H](F)CNC(=O)c1cnn2cc(-c3cccnc3)cc2c1NC1CCCC1 [Example 30, (R)-4-(cyclopentylamino)-N-(2-fluoro-3-hydroxy-3-methylbutyl)-6-(pyridin-3-yl)pyrrolo[1,2-b]pyridazine-3-carboxamide]
IC50 [1]: > 10000 nM | Ratio of JAK3 IC50 to IRAK4 IC50 [1]: >182 | IC50 [2]: 55 nM

CC(C)(O)[C@H](F)CNC(=O)c1cnn2cc(-c3ccccc3)cc2c1NC1CC1 [Example 31, (R)-4-(cyclopropylamino)-N-(2-fluoro-3-hydroxy-3-methylbutyl)-6-phenylpyrrolo[1,2-b] pyridazine-3-carboxamide]
IC50 [1]: > 2000 nM | Ratio of JAK3 IC50 to IRAK4 IC50 [1]: >61 | IC50 [2]: 33 nM

CC(C)(O)[C@H](F)CNC(=O)c1cnn2cc(-c3cccnc3)cc2c1NC1CC1 [Example 32, (R)-4-(cyclopropylamino)-N-(2-fluoro-3-hydroxy-3-methylbutyl)-6-(pyridin-3-yl)pyrrolo[1,2-b]pyridazine-3-carboxamide]
IC50 [1]: > 50000 nM | Ratio of JAK3 IC50 to IRAK4 IC50 [1]: >4545 | IC50 [2]: 11 nM

CC(C)Nc1c(C(=O)NC[C@@H](F)C(C)(C)O)cnn2cc(-c3ccnn3C)cc12 [Example 33, (R)—N-(2-fluoro-3-hydroxy-3-methylbutyl)-4-(isopropylamino)-6-(1-methyl-1H-pyrazol-5-yl) pyrrolo[1,2-b]pyridazine-3-carboxamide]
IC50 [1]: > 50000 nM | Ratio of JAK3 IC50 to IRAK4 IC50 [1]: >1923 | IC50 [2]: 26 nM

CC(C)Nc1c(C(=O)NC[C@@H](F)C(C)(C)O)cnn2cc(C#N)cc12 [Example 35, (R)-6-cyano-N-(2-fluoro-3-hydroxy-3-methylbutyl)-4-(isopropylamino)pyrrolo[1,2-b]pyridazine-3-carboxamide]
IC50 [1]: > 50000 nM | Ratio of JAK3 IC50 to IRAK4 IC50 [1]: >263 | IC50 [2]: 190 nM

CC(C)Nc1c(C(=O)NC[C@@H](F)C(C)(C)O)cnn2cc(C3CC3)cc12 [Example 36, (R)-6-cyclopropyl-N-(2-fluoro-3-hydroxy-3-methylbutyl)-4-(isopropylamino)pyrrolo[1,2-b]pyridazine-3-carboxamide]
IC50 [1]: > 50000 nM | Ratio of JAK3 IC50 to IRAK4 IC50 [1]: >1087 | IC50 [2]: 46 nM

CC(C)Nc1c(C(=O)NC[C@@H](F)C(C)(C)O)cnn2cc(-n3ncc4cncnc43)cc12 [Example 37, (R)—N-(2-fluoro-3-hydroxy-3-methylbutyl)-4-(isopropylamino)-6-(1H-pyrazolo[3,4-d]pyrimidin-1-yl)pyrrolo[1,2-b]pyridazine-3-carboxamide]
IC50 [1]: > 50000 nM | Ratio of JAK3 IC50 to IRAK4 IC50 [1]: >13158 | IC50 [2]: 3.8 nM

CC(C)Nc1c(C(=O)NC[C@@H](F)C(C)(C)O)cnn2cc(-c3cnn4cc(Cl)cnc34)cc12 [Example 38, (R)-6-(6-chloropyrazolo[1,5-a]pyrimidin-3-yl)-N-(2-fluoro-3-hydroxy-3-methylbutyl)-4-(isopropylamino)pyrrolo[1,2-b]pyridazine-3-carboxamide]
IC50 [1]: > 9900 nM | Ratio of JAK3 IC50 to IRAK4 IC50 [1]: >254 | IC50 [2]: 39 nM

CC(C)Nc1c(C(=O)NC[C@@H](F)C(C)(C)O)cnn2cc(-n3ncc4cc(C#N)cnc43)cc12 [Example 39, (R)-6-(5-cyano-1H-pyrazolo[3,4-b]pyridin-1-yl)-N-(2-fluoro-3-hydroxy-3-methylbutyl)-4-(isopropylamino) pyrrolo[1,2-b]pyridazine-3-carboxamide]
IC50 [1]: > 50000 nM | Ratio of JAK3 IC50 to IRAK4 IC50 [1]: >2381 | IC50 [2]: 21 nM

CC(C)Nc1c(C(=O)NC[C@@H](F)C(C)(C)O)cnn2cc(Nc3ccc(C#N)cn3)cc12 [Example 40, (R)-6-((5-cyanopyridin-2-yl)amino)-N-(2-fluoro-3-hydroxy-3-methylbutyl)-4-(isopropylamino) pyrrolo[1,2-b]pyridazine-3-carboxamide]
IC50 [1]: > 50000 nM | Ratio of JAK3 IC50 to IRAK4 IC50 [1]: >208 | IC50 [2]: 240 nM

CC(C)Nc1c(C(=O)NC[C@@H](F)C(C)(C)O)cnn2cc(Nc3cc(C#N)ccn3)cc12 [Example 41, (R)-6-((4-cyanopyridin-2-yl)amino)-N-(2-fluoro-3-hydroxy-3-methylbutyl)-4-(isopropylamino)pyrrolo[1,2-b]pyridazine-3-carboxamide]
IC50 [1]: > 50000 nM | Ratio of JAK3 IC50 to IRAK4 IC50 [1]: >81 | IC50 [2]: 620 nM

CC(C)Nc1c(C(=O)NC[C@@H](F)C(C)(C)O)cnn2cc(Nc3ncc(C#N)cc3Cl)cc12 [Example 42, (R)-6-((3-chloro-5-cyanopyridin-2-yl)amino)-N-(2-fluoro-3-hydroxy-3-methylbutyl)-4-(isopropylamino)pyrrolo[1,2-b]pyridazine-3-carboxamide]
IC50 [1]: > 50000 nM | Ratio of JAK3 IC50 to IRAK4 IC50 [1]: >1923 | IC50 [2]: 26 nM

CC(C)Nc1c(C(=O)NC[C@@H](F)C(C)(C)O)cnn2cc(Nc3ccncn3)cc12 [Example 43, (R)—N-(2-fluoro-3-hydroxy-3-methylbutyl)-4-(isopropylamino)-6-(pyrimidin-4-ylamino) pyrrolo[1,2-b] pyridazine-3-carboxamide]
IC50 [1]: > 50000 nM | Ratio of JAK3 IC50 to IRAK4 IC50 [1]: >617 | IC50 [2]: 81 nM

CC(C)Nc1c(C(=O)NC[C@@H](F)C(C)(C)O)cnn2cc(-c3cnoc3)cc12 [Example 44, (R)—N-(2-fluoro-3-hydroxy-3-methylbutyl)-4-(isopropylamino)-6-(isoxazol-4-yl)pyrrolo[1,2-b]pyridazine-3-carboxamide]
IC50 [1]: > 50000 nM | Ratio of JAK3 IC50 to IRAK4 IC50 [1]: >33 | IC50 [2]: 1500 nM

CC(C)Nc1c(C(=O)NC[C@@H](F)C(C)(C)O)cnn2cc(-c3ccncc3F)cc12 [Example 47, (R)—N-(2-fluoro-3-hydroxy-3-methylbutyl)-6-(3-fluoropyridin-4-yl)-4-(isopropylamino)pyrrolo[1,2-b]pyridazine-3-carboxamide]
IC50 [1]: > 50000 nM | Ratio of JAK3 IC50 to IRAK4 IC50 [1]: >14286 | IC50 [2]: 3.5 nM
